The subject of this assay is CD2F1 mice, L1210 leukemia ip, survival T/C. Put plainly: NCI In Vivo Anticancer Drug Screen. Data for tumor model L1210 Leukemia (intraperitoneal) in CD2F1 (CDF1) mice. Particulars: higher = longer survival. The gist of the method:
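Vehicle-treated tumor-bearing mice served as controls (C) for compound-treated mice (T). Reported figure is T divided by C.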

Where [1] appears, read: endpoint: mean survival time, dose: 100.0 mg/kg/injection, schedule: Q01DX001 (ip), vehicle: saline with Tween-80.
The mark [2] stands for this setting: endpoint: mean survival time, dose: 200.0 mg/kg/injection, schedule: Q01DX001 (ip), vehicle: saline with Tween-80.
[3] abbreviates: endpoint: mean survival time, dose: 100.0 mg/kg/injection, schedule: Q04DX003 (ip), vehicle: saline with Tween-80.
Setting [4] is: endpoint: mean survival time, dose: 200.0 mg/kg/injection, schedule: Q04DX003 (ip), vehicle: saline with Tween-80.
The mark [5] stands for this setting: endpoint: mean survival time, dose: 400.0 mg/kg/injection, schedule: Q04DX003 (ip), vehicle: saline with Tween-80.
[6] abbreviates: endpoint: mean survival time, dose: 100.0 mg/kg/injection, schedule: Q04DX002 (ip), vehicle: saline with Tween-80.
[7] abbreviates: endpoint: mean survival time, dose: 200.0 mg/kg/injection, schedule: Q04DX002 (ip), vehicle: saline with Tween-80.
Setting [8] is: endpoint: mean survival time, dose: 400.0 mg/kg/injection, schedule: Q04DX002 (ip), vehicle: saline with Tween-80.
Where [9] appears, read: endpoint: mean survival time, dose: 25.0 mg/kg/injection, schedule: Q04DX003 (ip), vehicle: saline with Tween-80.
Setting [10] is: endpoint: mean survival time, dose: 50.0 mg/kg/injection, schedule: Q01DX009 (ip), vehicle: saline with Tween-80.
Setting [11] is: endpoint: mean survival time, dose: 50.0 mg/kg/injection, schedule: Q04DX003 (ip), vehicle: saline with Tween-80.
Setting [12] is: endpoint: mean survival time, dose: 100.0 mg/kg/injection, schedule: Q01DX009 (ip), vehicle: saline with Tween-80.
[13] abbreviates: endpoint: mean survival time, dose: 400.0 mg/kg/injection, schedule: Q01DX001 (ip), vehicle: saline with Tween-80.

“And” between values parts separate entries of the source, which are not always exact repeats. Equal values may be shown once. Toxic doses and inconclusive results are not listed.

Consider `CC12CCC3C(CCC4CC(OC(=O)Cc5ccc(N(CCCl)CCCl)cc5)CCC43C)C1CCC(=O)N2` (stereo not drawn), for which the T/C is 98 % of control (endpoint: mean survival time, dose: 0.75 mg/kg/injection, schedule: Q01DX009 (ip), vehicle: saline with Tween-80); 102 % of control (endpoint: mean survival time, dose: 1.5 mg/kg/injection, schedule: Q01DX009 (ip), vehicle: saline with Tween-80); 108 % of control (endpoint: mean survival time, dose: 3.0 mg/kg/injection, schedule: Q01DX009 (ip), vehicle: saline with Tween-80); 112 % of control (endpoint: mean survival time, dose: 6.0 mg/kg/injection, schedule: Q01DX009 (ip), vehicle: saline with Tween-80); 122 % of control (endpoint: mean survival time, dose: 12.0 mg/kg/injection, schedule: Q01DX009 (ip), vehicle: saline with Tween-80); 115 % of control (endpoint: median survival time, dose: 3.0 mg/kg/injection, schedule: Q01DX009 (ip), vehicle: saline with Tween-80). The T/C is 119 % of control (endpoint: median survival time, dose: 6.0 mg/kg/injection, schedule: Q01DX009 (ip), vehicle: saline with Tween-80); 166 % of control and 168 % of control (endpoint: median survival time, dose: 24.0 mg/kg/injection, schedule: Q01DX009 (ip), vehicle: saline with Tween-80); 98 % of control and 111 % of control (endpoint: median survival time, dose: 48.0 mg/kg/injection, schedule: Q01DX009 (ip), vehicle: saline with Tween-80).

Take `O=C(On1nnc2ccccc2c1=O)c1ccccc1`: the T/C is, setting by setting: (endpoint: mean survival time, dose: 12.5 mg/kg/injection, schedule: Q01DX001 (ip), vehicle: distilled water + Tween-80) 102 % of control; (endpoint: mean survival time, dose: 25.0 mg/kg/injection, schedule: Q01DX001 (ip), vehicle: distilled water + Tween-80) 101 % of control; (endpoint: mean survival time, dose: 50.0 mg/kg/injection, schedule: Q01DX001 (ip), vehicle: distilled water + Tween-80) 98 % of control; (endpoint: mean survival time, dose: 100.0 mg/kg/injection, schedule: Q01DX001 (ip), vehicle: distilled water + Tween-80) 100 % of control; (endpoint: mean survival time, dose: 200.0 mg/kg/injection, schedule: Q01DX001 (ip), vehicle: distilled water + Tween-80) 97 % of control.

Take `C=CCCCCCCCCC(=O)NCCCN1CCOCC1`: the T/C is, setting by setting: under setting [1], 91 % of control; under setting [2], 86 % of control.

As to `Cc1cccc(Cl)c1NC(=O)CCCl`, the T/C under setting [3] is 97 % of control, the T/C under setting [4] was 106 % of control and the T/C under setting [5] was 98 % of control.

As for `Cn1c(=O)cc(C(=O)NCCCN2CCOCC2)c2ccccc21`, the T/C by setting is: under setting [3], 92 % of control; under setting [4], 96 % of control; under setting [5], 87 % of control.

For the compound `CCCCN(CCCC)N=O`, the T/C is 96 % of control (endpoint: mean survival time, dose: 25.0 mg/kg/injection, schedule: Q01DX009 (ip), vehicle: Klucel (hydroxypropylcellulose) (HPC)); 90 % of control (endpoint: mean survival time, dose: 50.0 mg/kg/injection, schedule: Q01DX009 (ip), vehicle: Klucel (hydroxypropylcellulose) (HPC)); 98 % of control (endpoint: mean survival time, dose: 100.0 mg/kg/injection, schedule: Q01DX009 (ip), vehicle: Klucel (hydroxypropylcellulose) (HPC)).

As for `O=P(OCC(F)(F)F)(OCC(F)(F)F)OCC(F)(F)F`, the T/C under setting [6] is 98 % of control, the T/C under setting [7] was 102 % of control and the T/C under setting [8] was 105 % of control.

Consider `Clc1[nH]nc2ccccc12`, for which the T/C reads like this: (endpoint: mean survival time, dose: 12.5 mg/kg/injection, schedule: Q01DX009 (ip), vehicle: saline with Tween-80) 102 % of control; (endpoint: mean survival time, dose: 12.5 mg/kg/injection, schedule: Q04DX003 (ip), vehicle: saline with Tween-80) 98 % of control; (endpoint: mean survival time, dose: 25.0 mg/kg/injection, schedule: Q01DX001 (ip), vehicle: saline with Tween-80) 90 % of control; (endpoint: mean survival time, dose: 25.0 mg/kg/injection, schedule: Q01DX009 (ip), vehicle: saline with Tween-80) 105 % of control; under setting [9], 93 % of control and 97 % of control; (endpoint: mean survival time, dose: 50.0 mg/kg/injection, schedule: Q01DX001 (ip), vehicle: saline with Tween-80) 98 % of control. For the same compound, the T/C is, setting by setting: under setting [10], 89 % of control; under setting [11], 101 % of control; under setting [1], 93 % of control; under setting [12], 101 % of control; under setting [3], 98 % of control and 97 % of control; (endpoint: mean survival time, dose: 200.0 mg/kg/injection, schedule: Q01DX009 (ip), vehicle: saline with Tween-80) 89 % of control. Also, the T/C is, setting by setting: under setting [4], 100 % of control; under setting [5], 86 % of control.

In the case of `CC(C)(C)C1=CC(=CN(O)C(C)(C)C)C=C(C(C)(C)C)C1=O`, the T/C is 100 % of control under setting [1], 103 % of control under setting [2] and 100 % of control under setting [13].

Take `O=C(COc1cccc(Cl)c1)Nc1ccc(S(=O)(=O)F)cc1`: the T/C was 97 % of control under setting [1], 95 % of control under setting [2] and 91 % of control under setting [13].

On to `CC(=O)NS(=O)(=O)c1ccc([NH-])cc1.CC(=O)NS(=O)(=O)c1ccc([NH-])cc1.[Cl][Pt+2][Cl]`, for which the T/C under setting [9] is 102 % of control; the T/C under setting [11] was 97 % of control; the T/C under setting [3] is 96 % of control; the T/C under setting [4] is 94 % of control; the T/C under setting [5] is 104 % of control.

As for `O=S(c1cc(Cl)ccc1O)c1cc(Cl)ccc1O`, the T/C runs as follows: under setting [3], 98 % of control; under setting [4], 89 % of control.

For the compound `Cc1ccc(SC(=O)Cc2ccc([N+](=O)[O-])cc2)cc1`, the T/C is 92 % of control under setting [1], 88 % of control under setting [2] and 93 % of control under setting [13].

Consider `CC(=N\[O-])/C(C)=N/O.CC(=N\[O-])/C(C)=N/O.CC(=O)[O-].CC(=O)[O-].O.[Rh+2].[Rh+2]`, for which the T/C (endpoint: mean survival time, dose: 0.78 mg/kg/injection, schedule: Q01DX009 (ip), vehicle: saline) was 88 % of control; the T/C (endpoint: mean survival time, dose: 3.13 mg/kg/injection, schedule: Q01DX009 (ip), vehicle: saline) was 96 % of control; the T/C (endpoint: mean survival time, dose: 6.25 mg/kg/injection, schedule: Q01DX009 (ip), vehicle: saline) is 91 % of control; the T/C (endpoint: mean survival time, dose: 12.5 mg/kg/injection, schedule: Q01DX009 (ip), vehicle: Klucel (hydroxypropylcellulose) (HPC)) was 95 % of control; the T/C (endpoint: mean survival time, dose: 12.5 mg/kg/injection, schedule: Q01DX009 (ip), vehicle: saline) was 93 % of control.

`NNC(=O)Nc1nn[nH]n1`: the T/C is, setting by setting: under setting [6], 97 % of control; under setting [7], 97 % of control; under setting [8], 94 % of control.

Turning to `O=C(OCC(OC(=O)c1ccccc1)C(OC(=O)c1ccccc1)C(O)C(O)CO)c1ccccc1` (stereo not drawn) (tested in a mixture with another compound), the T/C under setting [6] was 114 % of control and the T/C under setting [7] is 100 % of control.

Turning to `CCCCCCCCCCSC(=N)N`, the T/C (endpoint: mean survival time, dose: 6.25 mg/kg/injection, schedule: Q01DX001 (ip), vehicle: Klucel (hydroxypropylcellulose) (HPC)) was 102 % of control; the T/C (endpoint: mean survival time, dose: 12.5 mg/kg/injection, schedule: Q01DX001 (ip), vehicle: Klucel (hydroxypropylcellulose) (HPC)) was 112 % of control; the T/C (endpoint: mean survival time, dose: 25.0 mg/kg/injection, schedule: Q01DX001 (ip), vehicle: Klucel (hydroxypropylcellulose) (HPC)) is 96 % of control.

Consider `CCCCCC(C)(C)N=C=S`, for which the T/C under setting [3] is 100 % of control and the T/C under setting [4] is 96 % of control.

As for `CCC(Cc1ccccc1Br)C1=NC(C)(C)CO1` (stereo not drawn), the T/C by setting is: (endpoint: mean survival time, dose: 100.0 mg/kg/injection, schedule: Q01DX001 (ip), vehicle: acetone) 96 % of control; (endpoint: mean survival time, dose: 200.0 mg/kg/injection, schedule: Q01DX001 (ip), vehicle: acetone) 98 % of control.

Take `Cc1ccc(S(=O)(=O)O)cc1.Cc1ccc(S(=O)(=O)O)cc1.[NH-]C1CCCCC1[NH-].[Pt+2]`: the T/C runs as follows: (endpoint: mean survival time, dose: 2.0 mg/kg/injection, schedule: Q04DX003 (ip), vehicle: other) 177 % of control; (endpoint: mean survival time, dose: 4.0 mg/kg/injection, schedule: Q04DX003 (ip), vehicle: other) 255 % of control; (endpoint: mean survival time, dose: 8.0 mg/kg/injection, schedule: Q04DX003 (ip), vehicle: other) 183 % of control.

Consider `CC1CCC(C)C([N+](C)(C)C)C1` (stereo not drawn), for which the T/C is 102 % of control (endpoint: mean survival time, dose: 12.5 mg/kg/injection, schedule: Q01DX001 (ip), vehicle: saline); 110 % of control (endpoint: mean survival time, dose: 25.0 mg/kg/injection, schedule: Q01DX001 (ip), vehicle: saline); 100 % of control (endpoint: mean survival time, dose: 50.0 mg/kg/injection, schedule: Q01DX001 (ip), vehicle: saline).

Regarding `C/C(=N\N(C)C)C(C)(C)C`, the T/C is, setting by setting: (endpoint: mean survival time, dose: 75.0 mg/kg/injection, schedule: Q01DX001 (ip), vehicle: saline) 93 % of control; (endpoint: mean survival time, dose: 150.0 mg/kg/injection, schedule: Q01DX001 (ip), vehicle: saline) 100 % of control; (endpoint: mean survival time, dose: 300.0 mg/kg/injection, schedule: Q01DX001 (ip), vehicle: saline) 108 % of control.

Turning to `CCCC(=O)OCc1ccc(Cl)c(Cl)c1`, the T/C runs as follows: under setting [10], 97 % of control; under setting [12], 92 % of control; under setting [3], 91 % of control; under setting [4], 87 % of control.
